Columns and labels:
[1] = test system: carrageenan-induced paw edema; test: Carrageenan-induced paw edema (acute inflammation); format: in vivo, rat; details: for ED50: Rattus norvegicus, oral, 45 minutes before carrageenan, read-out: effective dose for 50 percent reduction of the paw edema (ED50)
Experimental: To evaluate early i.e. rapid-acting therapeutic efficacy, carrageenan (1 mg in 0.1 ml saline) was injected into rear paws of rats to elicit a rapid onset (acute) inflammation. The ensuing paw edema was measured by the increase in paw thickness with a micrometer over the subsequent three hour period at hourly intervals.
The test drug formulations were given orally 45 minutes before injecting the carrageenan.

[2] = test system: NSAID-induced gastric lesions; test: Gastric injury caused by aspirin/NSAIDs in pre-sensitised (pre-inflamed) rats, gastroprotection assay; details: for incidence of gastric lesions and bleeding: pre-inflamed rats, aspirin 100 mg/kg, Naproxen 10 mg/kg, Ketoprofen 5 mg/kg orally, Piroxicam 5 mg/kg intraperitoneally
Experimental: This model comprises oral or parenteral non-steroidal anti-inflammatory drugs (NSAIDs) given to rats whose gastrointestinal mucosa is pre-sensitized by prior development of arthritis or oleyl alcohol-induced inflammation. The animals are pre-sensitized by injection of an arthritogenic adjuvant or 0.1 ml oleyl alcohol 5 days prior to the assay.
The disease stress was induced five days previously either by injecting an arthritigenic adjuvant or 0.1 ml oleyl alcohol into the tail base to incite severe local inflammation. […] A-CSE or S-CSE was given orally within 20 seconds of the aspirin/NSAID. The number (N) and severity (S, graded on a score of 0 to 4 based on increasing area of injury) of gastric lesions as well as the percentage incidence of animals (%I) with gastric damage was recorded. The lesion index (LI) was then calculated as: LI=N/n+S/n+%I/10, where n=number of animals per group.
Gastroprotective activity was assessed in fasted (overnight) arthritic rats challenged with 50 mg/kg Ibuprofen given orally to induce gastric bleeding. Test preparations, dispersed with Tween-20, were given orally 20 seconds prior to Ibuprofen.
The procedure is further elaborated in K. Rainsford and M. Whitehouse [J. Pharm.

[3] = test system: adjuvant-induced arthritis; test: Experimental (adjuvant-induced) polyarthritis in rats, treatment of established arthritis; format: in vivo, rat; details: for Mean % Inhibition of Arthritis Score / Mean % Inhibition of Fore Paw Swelling / Mean % Inhibition of Rear Paw Swelling: per os, mg/kg per day: A-CSE 350, S-CSE 50, Aspirin 150 × 2, Ibuprofen 50, Naproxen 25; for Mean % Inhibition of Arthritis Score: days 10-13, day 14, independent observer; for Mean % Inhibition of Fore Paw Swelling / Mean % Inhibition of Rear Paw Swelling: days 10-13, measured day 14; for anti-inflammatory activity: tested at 50 mg/kg
[4] = test system: adjuvant arthritis (onset); test: Arthritis-ablating activity: test material incorporated into the arthritigenic adjuvant; format: in vivo, female Dark Agouti rats; details: for activity in preventing (ablating) adjuvant arthritis: summary of Table 3; for effect on arthritis score (AS): most tested at 10 mg/rat, no effect = AS 2.5+
[5] = test system: production of prostaglandin E2; test: Production of prostaglandin E2 by pig gastric (fundic) mucosal explants; format: cell-based; details: 10 μmol/L, pure samples
[6] = test system: adjuvant arthritis (onset); details: Haynes D R et al. Inflamm Res 45:159-165, 1996; cited from earlier work

CC(=O)Oc1ccccc1C(=O)O [Aspirin]
ED50 [1]: 200 mg/kg
incidence of gastric lesions and bleeding [2]: 90%
Mean % Inhibition of Arthritis Score [3]: 25%
Mean % Inhibition of Fore Paw Swelling [3]: 24%
Mean % Inhibition of Rear Paw Swelling [3]: 40%
activity in preventing (ablating) adjuvant arthritis [4]: not shared

COc1c2ccoc2cc2oc(=O)ccc12 [Bergapten]
activity in preventing (ablating) adjuvant arthritis [4]: without such activity

CCCCC1OC(=O)c2ccccc21 (stereo not shown) [Butylphthalide]
gastroprotective activity ([2]; tested at 50 mg/kg): no anti-inflammatory or gastroprotective activity
anti-inflammatory activity [3]: no anti-inflammatory or gastroprotective activity
activity in preventing (ablating) adjuvant arthritis [4]: without such activity

CC(C)Cc1ccc(C(C)C(=O)O)cc1 (stereo not shown) [Ibuprofen]
inhibition of paw swelling ([1]; Ibuprofen 15 mg/kg, Ketoprofen 1 mg/kg, alone, n=6, not statistically significant): 19%
ED50 [1]: 45 mg/kg
mean number of haemorrhagic lesions (+/−SD) ([2]; 50 mg/kg, free acid or Nurofen, suspension 5 ml/kg, pre-inflamed female Wistar rats, n=90): 42+/−06
animals with no macroscopically detectable gastric bleeding ([2]; Ibuprofen 50 mg/kg with no celery (n=90 rats) or with celery extracts (n=67 rats)): 7%
suppression of arthritic paw swelling / inhibition of polyarthritis ([3]; four successive oral doses, Ibuprofen 30 mg/kg, A-CSE 50 mg/kg, S-CSE 5 mg/kg): 38%
Mean % Inhibition of Arthritis Score [3]: 36%
Mean % Inhibition of Fore Paw Swelling [3]: 39%
Mean % Inhibition of Rear Paw Swelling [3]: 38%
activity in preventing (ablating) adjuvant arthritis [4]: not shared

C=C(C)[C@H]1CC=C(C)CC1 [Limonene]
effect on production of prostaglandin E2 [5]: not
anti-inflammatory activity [3]: no anti-inflammatory or gastroprotective activity
activity in preventing (ablating) adjuvant arthritis [4]: without such activity

COc1ccc2cc([C@H](C)C(=O)O)ccc2c1 [Naproxen]
Mean % Inhibition of Arthritis Score [3]: 64%
Mean % Inhibition of Fore Paw Swelling [3]: 36%
Mean % Inhibition of Rear Paw Swelling [3]: 57%
activity in preventing (ablating) adjuvant arthritis [4]: not shared

CCCCCCCCCCC/C=C\CCCCC(=O)OC [Petroselenic acid methyl ester]
activity in preventing (ablating) adjuvant arthritis [4]: without such activity

CN1C(C(=O)Nc2ccccn2)=C(O)c2ccccc2S1(=O)=O [Piroxicam]
incidence of gastric lesions and bleeding [2]: 90%

Cn1cnc([N+](=O)[O-])c1Sc1ncnc2nc[nH]c12 [azathioprine]
effect on arthritis score (AS) [4]: no effect

O=C(O)CCCc1ccc(N(CCCl)CCCl)cc1 [chlorambucil]
effect on arthritis score (AS) [4]: no effect

Nc1ccc(S(=O)(=O)c2ccc(N)cc2)cc1 [dapsone]
effect on arthritis score (AS) [4]: no effect

O=C(O)c1ccccc1Nc1cc(Cl)ccc1C(=O)O [lobenzarit]
ablating the onset of arthritis [6]: capable of ablating the onset of arthritis

O=c1c(O)c(-c2cc(O)c(O)c(O)c2)oc2cc(O)cc(O)c12 [myricetin]
effect on production of prostaglandin E2 [5]: inhibited

O=c1c(O)c(-c2ccc(O)c(O)c2)oc2cc(O)cc(O)c12 [quercetin]
effect on production of prostaglandin E2 [5]: inhibited
